This test concerns the target T1, glucokinase (GK) (Homo sapiens, UniProt P35557).
T1 construct: I.D. No. 1 corresponds to residues 12-465 of glucokinase; made in house; host or cells: E. coli DH10b-T1r
T1 sequence (P35557 with tags, fused parts or gaps isoform P35557-2): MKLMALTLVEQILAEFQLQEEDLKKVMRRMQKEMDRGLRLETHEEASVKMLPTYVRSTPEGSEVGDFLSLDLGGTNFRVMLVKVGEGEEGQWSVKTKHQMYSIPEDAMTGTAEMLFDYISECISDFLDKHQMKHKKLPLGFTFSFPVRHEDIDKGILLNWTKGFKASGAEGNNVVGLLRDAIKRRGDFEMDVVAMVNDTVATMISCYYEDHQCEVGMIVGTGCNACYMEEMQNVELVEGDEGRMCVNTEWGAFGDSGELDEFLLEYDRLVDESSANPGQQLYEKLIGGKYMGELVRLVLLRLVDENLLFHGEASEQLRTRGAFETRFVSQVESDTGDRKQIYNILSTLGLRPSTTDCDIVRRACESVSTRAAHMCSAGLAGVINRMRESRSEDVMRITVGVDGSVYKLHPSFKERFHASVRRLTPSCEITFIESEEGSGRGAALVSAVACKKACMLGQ
In words: enzymatic glucokinase activity assay (ATP consumption, KinaseGlo luminescence). It is filed as biochemical. As to conditions: recombinant GK residues 12-465; 5 μM ATP, 5 mM Glucose; Kact = concentration that displays 50% of the maximal increase in GK activity; read-out: pKact. The source says: The activity of compounds as glucokinase activators may be assayed in vitro, in vivo or in a cell line. Provided below is an enzymatic glucokinase activity assay.
Purified glucokinase may be obtained as follows. […] SEQ.
The expression of recombinant glucokinase protein may be carried out by transformation and growth of DH10b-T1r E. coli cells incorporating the (pFLAG-CTC) plasmid in LB media. Protein expression can be induced in this system by the addition of IPTG to the culture medium.
Recombinant protein may be isolated from cellular extracts by passage over Sepharose Q Fast Flow resin (Pharmacia). This partially purified GK extract may then be further purified by a second passage over Poros HQ 10 (Applied Biosystems). The purity of GK may be determined on denaturing SDS-PAGE gel. Purified GK may then be concentrated to a final concentration of 20.0 mg/ml. After flash freezing in liquid nitrogen, the proteins can be stored at −78° C. in a buffer containing 25 mM TRIS-HCl pH 7.6, 50 mM NaCl, and 0.5 mM TCEP.
The activation properties of compounds for GK may be determined using a black 384-well-plate format under the following reaction conditions: 25 mM Hepes pH 7.2, 25 mM NaCl, 10 mM MgCl2, 0.01% Brij35, 1 mM DTT, 5 μM ATP, 5 mM Glucose 2% DMSO. The amount of ATP consumed may be determined quantitatively by addition of equal volume of luciferase reagent (luciferase+beetle luciferin—KinaseGlo Luminescent Kinase Assay kit from Promega). The luminescence intensity may be measured by using the Analyst HT from LJL Biosystems.
The reaction mixture may then be incubated at room temperature for 60 min, and quenched and developed by addition of 10 μL of luciferase reagent. Luminescence intensities of the resulting reaction mixtures may be measured after a 10 min incubation at room temperature. The luminescence intensity may be measured by using the Analyst HT from LJL Biosystems.
pKact values may be calculated by non-linear curve fitting of the compound concentrations and luminescence intensities to a standard inhibition/activation equation.

Structures are written as SMILES. Structures can show the parent of a compound that is named as a salt.

In the case of `Cc1cc(S(=O)(=O)C2CC2)c(Cl)c(=O)n1[C@@H](CC1CCCCC1)C(=O)Nc1ncc(Cl)s1` [Example 77, (S)-2-(3-chloro-4-(cyclopropylsulfonyl)-6-methyl-2-oxopyridin-1(2H)-yl)-N-(5-chlorothiazol-2-yl)-3-cyclohexylpropanamide], the EC50 is below 1.58 µM.

Take `Cc1csc(-c2cc(C)n([C@@H](CC3CCCCC3)C(=O)Nc3nccs3)c(=O)c2)c1` [Example 111, (S)-3-cyclohexyl-2-(6-methyl-4-(4-methylthiophen-2-yl)-2-oxopyridin-1(2H)-yl)-N-(thiazol-2-yl)propanamide]: the EC50 is above 15.8 µM.

For the molecule `Cc1cc(S(=O)(=O)c2cc(C)n(C(CC3CCCCC3)C(=O)Nc3ncc(Cl)s3)c(=O)c2)c(C)o1` (stereo not drawn) [Example 83, N-(5-chlorothiazol-2-yl)-3-cyclohexyl-2-(4-(2,5-dimethylfuran-3-ylsulfonyl)-6-methyl-2-oxopyridin-1(2H)-yl)propanamide], the EC50 is below 1.58 µM.

As for `Cc1cc(S(=O)(=O)c2cccc(F)c2)cc(=O)n1C(CC1CCOCC1)C(=O)Nc1ncc(Cl)s1` (stereo not drawn) [Example 158, N-(5-chlorothiazol-2-yl)-2-(4-(3-fluorophenylsulfonyl)-6-methyl-2-oxopyridin-1(2H)-yl)-3-(tetrahydro-2H-pyran-4-yl)propanamide], the EC50 was below 1.58 µM.

Take `O=C(Nc1nccs1)C(CC1CCCCC1)n1ccc(S(=O)(=O)C2CCCC2)cc1=O` (stereo not drawn) [Example 8, 3-cyclohexyl-2-(4-(cyclopentylsulfonyl)-2-oxopyridin-1(2H)-yl)-N-(thiazol-2-yl)propanamide trifluoroacetic acid salt]: the EC50 was below 1.58 µM.

On to `Cc1cc(-c2ccc(S(C)(=O)=O)cc2)cc(=O)n1[C@@H](CC1CCCCC1)C(=O)Nc1nccs1` [Example 101, (S)-3-cyclohexyl-2-(6-methyl-4-(4-(methylsulfonyl)phenyl)-2-oxopyridin-1(2H)-yl)-N-(thiazol-2-yl)propanamide], for which the EC50 is above 15.8 µM.

For `N#Cc1cnc(NC(=O)[C@@H](CC2CCOCC2)n2ccc(S(=O)(=O)C3CCCC3)cc2=O)s1` [Example 56, (R)-N-(5-cyanothiazol-2-yl)-2-(4-(cyclopentylsulfonyl)-2-oxopyridin-1(2H)-yl)-3-(tetrahydro-2H-pyran-4-yl)propanamide], the EC50 is above 15.8 µM.

As to `Cc1cc(-c2cc3ccccc3s2)cc(=O)n1[C@@H](CC1CCCCC1)C(=O)Nc1nccs1` [Example 108, (S)-2-(4-(benzo[b]thiophen-2-yl)-6-methyl-2-oxopyridin-1(2H)-yl)-3-cyclohexyl-N-(thiazol-2-yl)propanamide], the EC50 was above 15.8 µM.

Take `NC(=O)c1ccc(NC(=O)[C@H](CC2CCOCC2)n2ccc(S(=O)(=O)C3CCCC3)cc2=O)nc1` [Example 46, (S)-6-(2-(4-(cyclopentylsulfonyl)-2-oxopyridin-1(2H)-yl)-3-(tetrahydro-2H-pyran-4-yl)propanamido)nicotinamide]: the EC50 is below 1.58 µM.

On to `Cc1cc(S(=O)(=O)C2CCOCC2)cc(=O)n1[C@H](CC1CCCC1)C(=O)Nc1ncc(Cl)s1` [Example 192, (R)-N-(5-chlorothiazol-2-yl)-3-cyclopentyl-2-(6-methyl-2-oxo-4-(tetrahydro-2H-pyran-4-ylsulfonyl)pyridin-1(2H)-yl)propanamide], for which the EC50 is above 15.8 µM.

With `O=C(Nc1ncc(Cl)s1)C(CC1CCOCC1)n1cc(S(=O)(=O)N2CCCC2)ccc1=O` (stereo not drawn) [Example 140, N-(5-chlorothiazol-2-yl)-2-(2-oxo-5-(pyrrolidin-1ylsulfonyl)pyridin-1(2H)-yl)-3-(tetrahydro-2H-pyran-4-yl)propanamide], the EC50 was in the range of 1.58 to 15.8 µM.

Consider `CN(C)C(=O)CN1CCN(Cc2cnc(NC(=O)C(CC3CCOCC3)n3ccc(S(=O)(=O)C4CC4)cc3=O)s2)CC1` (stereo not drawn) [Example 150, 2-(4-(cyclopropylsulfonyl)-2-oxopyridin-1(2H)-yl)-N-(5-((4-(2-(dimethylamino)-2-oxoethyl)piperazin-1-yl)methyl)thiazol-2-yl)-3-(tetrahydro-2H-pyran-4-yl)propanamide], for which the EC50 is above 15.8 µM.

Turning to `Cc1cc(S(=O)(=O)Cc2cccs2)cc(=O)n1[C@@H](CC1CCCCC1)C(=O)Nc1ncc(Cl)s1` [Example 85, (S)-N-(5-chlorothiazol-2-yl)-3-cyclohexyl-2-(6-methyl-2-oxo-4-(thiophen-2-ylmethylsulfonyl)pyridin-1(2H)-yl)propanamide], the EC50 was below 1.58 µM.

`CC(C)(O)c1cnc(NC(=O)C(CC2CCOCC2)n2ccc(S(=O)(=O)C3CC3)cc2=O)s1` (stereo not drawn) [Example 117, 2-(4-(cyclopropylsulfonyl)-2-oxopyridin-1(2H)-yl)-N-(5-(2-hydroxypropan-2-yl)thiazol-2-yl)-3-(tetrahydro-2H-pyran-4-yl)propanamide]: the EC50 is above 15.8 µM.

Turning to `Cc1cc(S(=O)(=O)c2cccc(F)c2)cc(=O)n1[C@@H](CC1CCOCC1)C(=O)Nc1ncc(F)s1` [Example 189, (S)-2-(4-(3-fluorophenylsulfonyl)-6-methyl-2-oxopyridin-1(2H)-yl)-N-(5-fluorothiazol-2-yl)-3-(tetrahydro-2H-pyran-4-yl)propanamide], the EC50 was in the range of 1.58 to 15.8 µM.

Regarding `CS(=O)(=O)c1ccn([C@H](CC2CCOCC2)C(=O)Nc2ncc(Cl)s2)c(=O)c1` [Example 22, (R)-N-(5-chlorothiazol-2-yl)-2-(4-(methylsulfonyl)-2-oxopyridin-1(2H)-yl)-3-(tetrahydro-2H-pyran-4-yl)propanamide], the EC50 is above 15.8 µM.

As to `Cc1cc(S(=O)(=O)C2CCCC2)cc(=O)n1C(Cc1ccco1)C(=O)Nc1nccs1` (stereo not drawn) [Example 21, 2-(4-(cyclopentylsulfonyl)-6-methyl-2-oxopyridin-1(2H)-yl)-3-(furan-2-yl)-N-(thiazol-2-yl)propanamide], the EC50 was above 15.8 µM.

As to `NC(=O)c1ccc(NC(=O)[C@@H](CC2CCOCC2)n2ccc(S(=O)(=O)C3CCCC3)cc2=O)nc1` [Example 47, (R)-6-(2-(4-(cyclopentylsulfonyl)-2-oxopyridin-1(2H)-yl)-3-(tetrahydro-2H-pyran-4-yl)propanamido)nicotinamide], the EC50 was above 15.8 µM.

`Cc1cc(S(=O)(=O)C2CCCC2)cc(=O)n1C(CC1CCOCC1)C(=O)Nc1cnccn1` (stereo not drawn) [Example 177, 2-(4-(cyclopentylsulfonyl)-6-methyl-2-oxopyridin-1(2H)-yl)-N-(pyrazin-2-yl)-3-(tetrahydro-2H-pyran-4-yl)propanamide]: the EC50 was above 15.8 µM.

Consider `Cc1cc(S(=O)(=O)C2CCCC2)cc(=O)n1[C@@H](CC1CCOCC1)C(=O)Nc1ncc(F)s1` [Example 40, (S)-2-(4-(cyclopentylsulfonyl)-6-methyl-2-oxopyridin-1(2H)-yl)-N-(5-fluorothiazol-2-yl)-3-(tetrahydro-2H-pyran-4-yl)propanamide], for which the EC50 is below 1.58 µM.

Take `Cc1cc(S(=O)(=O)C2CCCC2)cc(=O)n1[C@H](CC1CCOCC1)C(=O)Nc1ccc(C(N)=O)cn1` [Example 181, (R)-6-(2-(4-(cyclopentylsulfonyl)-6-methyl-2-oxopyridin-1(2H)-yl)-3-(tetrahydro-2H-pyran-4-yl)propanamido)nicotinamide]: the EC50 is above 15.8 µM.

Take `Cn1ccc(NC(=O)[C@H](CC2CCOCC2)n2ccc(S(=O)(=O)C3CC3)cc2=O)n1` [Example 74, (S)-2-(4-(cyclopropylsulfonyl)-2-oxopyridin-1(2H)-yl)-N-(1-methyl-1H-pyrazol-3-yl)-3-(tetrahydro-2H-pyran-4-yl)propanamide]: the EC50 is 1.58 to 15.8 µM.

For the molecule `N#Cc1cnc(NC(=O)[C@H](CC2CCOCC2)n2ccc(S(=O)(=O)C3CCCC3)cc2=O)s1` [Example 57, (S)-N-(5-cyanothiazol-2-yl)-2-(4-(cyclopentylsulfonyl)-2-oxopyridin-1(2H)-yl)-3-(tetrahydro-2H-pyran-4-yl)propanamide], the EC50 is 1.58 to 15.8 µM.

For the molecule `Cc1cc(N2CCCC2)cc(=O)n1C(CC1CCCCC1)C(=O)Nc1nccs1` (stereo not drawn) [Example 87, 3-cyclohexyl-2-(6-methyl-2-oxo-4-(pyrrolidin-1-yl)pyridin-1(2H)-yl)-N-(thiazol-2-yl)propanamide], the EC50 was above 15.8 µM.

Values taken from patent US8163779B2, “Glucokinase activators” (Takeda San Diego, Inc., priority 2006, dated 2012).
